Here are results for 11 compounds from US10266497B2 (ABIDE THERAPEUTICS, INC., priority 2017, dated 2019).

The target of experiment [1] is T1, MAGL (Homo sapiens, UniProt Q99685).
T1 sequence (Q99685 1-303): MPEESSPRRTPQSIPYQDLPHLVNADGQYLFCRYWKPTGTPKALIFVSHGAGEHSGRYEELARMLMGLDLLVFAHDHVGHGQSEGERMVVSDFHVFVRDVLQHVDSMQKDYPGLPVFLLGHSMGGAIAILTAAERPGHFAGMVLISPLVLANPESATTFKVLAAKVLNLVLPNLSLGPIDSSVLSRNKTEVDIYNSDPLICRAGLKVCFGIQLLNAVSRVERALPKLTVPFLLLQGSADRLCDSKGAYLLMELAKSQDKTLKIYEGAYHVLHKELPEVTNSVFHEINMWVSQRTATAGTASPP
Description: In vitro competitive activity-based protein profiling, MAGL, human. The note with it: read-out: MAGL % inh. 1 μM (human).
Description: Biological Evaluation In Vitro Competitive Activity-Based Protein Profiling.
Proteomes (mouse brain membrane fraction for mouse assays; human prefrontal cortex membrane fractions for human assays) (50 mL, 1.0 mg/mL total protein concentration) were preincubated with varying concentrations of inhibitors at 37° C. After 30 min, FP-Rh (1.0 mL, 50 mM in DMSO) was added and the mixture was incubated for another 30 min at 37° C. Reactions were quenched with SDS loading buffer (15 μL—4λ) and run on SDS-PAGE.

For experiment [2], the target named is T2, MAGL (Mus musculus, UniProt O35678).
T2 sequence (O35678 1-303): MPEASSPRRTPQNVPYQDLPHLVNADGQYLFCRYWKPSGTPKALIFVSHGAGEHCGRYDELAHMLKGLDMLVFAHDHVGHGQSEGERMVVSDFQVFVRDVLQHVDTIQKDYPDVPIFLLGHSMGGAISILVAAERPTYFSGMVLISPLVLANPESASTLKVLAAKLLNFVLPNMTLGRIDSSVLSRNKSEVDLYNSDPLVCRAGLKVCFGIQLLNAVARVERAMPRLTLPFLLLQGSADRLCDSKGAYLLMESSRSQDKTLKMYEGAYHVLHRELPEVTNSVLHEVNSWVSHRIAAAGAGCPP
Kind of experiment: In vitro competitive activity-based protein profiling, MAGL, mouse. To be noted: read-out: MAGL % inh. 1 μM (mouse).

Experiment [3] addresses T3, FAAH (Homo sapiens, UniProt O00519).
T3 sequence (O00519 1-579): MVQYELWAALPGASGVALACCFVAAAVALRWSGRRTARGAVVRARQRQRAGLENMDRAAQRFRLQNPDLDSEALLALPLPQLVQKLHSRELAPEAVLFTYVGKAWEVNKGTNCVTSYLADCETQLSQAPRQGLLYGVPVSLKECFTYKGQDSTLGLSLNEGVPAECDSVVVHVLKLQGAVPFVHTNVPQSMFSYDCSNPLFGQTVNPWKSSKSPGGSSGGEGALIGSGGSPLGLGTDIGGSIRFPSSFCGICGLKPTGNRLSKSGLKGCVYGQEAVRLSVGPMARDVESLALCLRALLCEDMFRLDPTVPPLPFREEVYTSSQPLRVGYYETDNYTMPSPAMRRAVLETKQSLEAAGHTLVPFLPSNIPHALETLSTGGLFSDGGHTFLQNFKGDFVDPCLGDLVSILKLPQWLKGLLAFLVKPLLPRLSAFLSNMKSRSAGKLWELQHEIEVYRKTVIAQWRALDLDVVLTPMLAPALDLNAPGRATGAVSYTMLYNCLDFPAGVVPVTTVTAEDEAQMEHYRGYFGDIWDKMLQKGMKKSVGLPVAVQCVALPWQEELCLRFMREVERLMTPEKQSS
Kind of experiment: In vitro competitive activity-based protein profiling, FAAH, human. The note with it: for inhibition at 1 µM: read-out: FAAH % inh. 1 μM (human).

Experiment [4] concerns the target T4, FAAH (Mus musculus, UniProt O08914).
T4 sequence (O08914 1-579): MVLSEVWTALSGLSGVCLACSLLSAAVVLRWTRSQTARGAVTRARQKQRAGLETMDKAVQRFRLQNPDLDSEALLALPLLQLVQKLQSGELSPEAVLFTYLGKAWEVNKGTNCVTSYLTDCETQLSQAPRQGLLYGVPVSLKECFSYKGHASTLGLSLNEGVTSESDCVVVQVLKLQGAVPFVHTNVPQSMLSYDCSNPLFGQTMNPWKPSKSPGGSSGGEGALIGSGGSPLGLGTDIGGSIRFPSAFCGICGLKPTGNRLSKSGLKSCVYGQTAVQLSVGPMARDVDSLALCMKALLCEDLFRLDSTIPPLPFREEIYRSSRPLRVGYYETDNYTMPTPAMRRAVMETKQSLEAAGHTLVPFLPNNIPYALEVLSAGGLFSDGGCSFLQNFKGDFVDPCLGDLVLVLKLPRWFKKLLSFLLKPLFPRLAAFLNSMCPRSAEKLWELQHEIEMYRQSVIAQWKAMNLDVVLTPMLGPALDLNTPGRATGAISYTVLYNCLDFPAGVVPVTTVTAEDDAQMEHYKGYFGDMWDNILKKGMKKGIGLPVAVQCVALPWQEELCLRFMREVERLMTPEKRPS
Kind of experiment: In vitro competitive activity-based protein profiling, FAAH, mouse. The note with it: read-out: FAAH % inh. 1 μM (mouse).

Experiment [5] addresses T2, MAGL. Description: Mouse brain proteomes from inhibitor treated mice (oral gavage, sacrificed 4 h after administration). The class given is in vivo. Also noted: mouse brain membrane fraction for mouse assays; from tissue; host or cells: mouse brain (membrane fraction in vitro; brain proteomes of treated C57Bl/6J mice in vivo). The note with it: 5 mg/kg oral gavage, brain proteome 4 h after administration, read-out: MAGL % inh. 5 mg/kg (mouse).

For experiment [6], the target named is T4, FAAH. Description: Mouse brain proteomes from inhibitor treated mice (oral gavage, sacrificed 4 h after administration), FAAH. The class given is in vivo. Also noted: mouse brain membrane fraction for mouse assays; from tissue; host or cells: mouse brain (membrane fraction in vitro; brain proteomes of treated C57Bl/6J mice in vivo). To be noted: 5 mg/kg oral gavage, brain proteome 4 h after administration, read-out: FAAH % inh. 5 mg/kg (mouse).

For orientation: IC50 means the midpoint of a concentration-inhibition curve. A lower IC50 goes with greater potency in that assay.

As for `O=C(O)c1nn(C(=O)N2CCC3(CCN(Cc4cc(Cl)ccc4C(F)(F)F)C3)CC2)cc1Cl` [Example 133, 4-chloro-1-(2-(5-chloro-2-(trifluoromethyl)benzyl)-2,8-diazaspiro[4.5]decane-8-carbonyl)-1H-pyrazole-3-carboxylic acid], the inhibition at 1 µM on MAGL [1], on MAGL [2], at FAAH [3] and on FAAH [4] was more than 75% throughout. The compound also had an IC50 on FAAH [3] of 100 to 1000 nM. Also, the inhibition at 5 mg/kg on MAGL [5] and at FAAH [6] was 0 to 25% each time.
Turning to `COC1CCN(c2cc(C(F)(F)F)ccc2CN2CCN(C(=O)n3ccc(C(=O)O)n3)CC2)CC1` [Example 12, 1-(4-(2-(4-Methoxypiperidin-1-yl)-4-(trifluoromethyl)benzyl)piperazine-1-carbonyl)-1H-pyrazole-3-carboxylic Acid], the inhibition at 1 µM on MAGL [1] was more than 75%; at MAGL [2], more than 75%; at FAAH [3], 0 to 25%; at FAAH [4], 0 to 25%. The inhibition at 5 mg/kg at MAGL [5] and at FAAH [6] was 0 to 25% in each case.
`O=C(O)c1nn(C(=O)N2CCC3(CCN(Cc4cc(Cl)ccc4C(F)(F)F)C3)CC2)cc1C(F)(F)F` [Example 148, 1-(2-(5-chloro-2-(trifluoromethyl)benzyl)-2,8-diazaspiro[4.5]decane-8-carbonyl)-4-(trifluoromethyl)-1H-pyrazole-3-carboxylic acid]: the inhibition at 1 µM at MAGL [1], on MAGL [2], on FAAH [3] and on FAAH [4] was more than 75% each time. The compound further displayed a 50% inhibitory concentration (IC50) at FAAH [3] of 100 to 1000 nM. The inhibition at 5 mg/kg is 0 to 25% on MAGL [5] and 25 to 50% on FAAH [6].
On to `O=C(O)c1ccn(C(=O)N2CCC(Oc3ccc(Cl)c(N4CCCC4)c3)CC2)n1` [Example 121, 1-(4-(4-chloro-3-(pyrrolidin-1-yl)phenoxy)piperidine-1-carbonyl)-1H-pyrazole-3-carboxylic acid], for which the inhibition at 1 µM at MAGL [1] was more than 75%; on MAGL [2], more than 75%; on FAAH [3], 0 to 25%; on FAAH [4] it was 0 to 25%. Besides, the inhibition at 5 mg/kg at MAGL [5] and at FAAH [6] was 0 to 25% each time.
Turning to `CN(Cc1ccc(C(F)(F)F)cc1-c1nccs1)C1(C)CCN(C(=O)n2ccc(C(=O)O)n2)CC1` [Example 10, 1-(4-methyl-4-(methyl(2-(thiazol-2-yl)-4-(trifluoromethyl)benzyl)amino)piperidine-1-carbonyl)-1H-pyrazole-3-carboxylic Acid], the inhibition at 1 µM at MAGL [1] was more than 75%; at MAGL [2], more than 75%; at FAAH [3], 0 to 25%; at FAAH [4] it was 0 to 25%. The inhibition at 5 mg/kg at MAGL [5] and at FAAH [6] was 0 to 25% each time.
For `O=C(O)c1ccn(C(=O)N2CCN(Cc3ccc(Cl)cc3N3C4CCC3COC4)CC2)n1` [Example 105, 1-(4-(2-(3-oxa-8-azabicyclo[3.2.1]octan-8-yl)-4-chlorobenzyl)piper-azine-1-carbonyl)-1H-pyrazole-3-carboxylic acid], the inhibition at 1 µM at MAGL [1] was more than 75%; at MAGL [2], more than 75%; on FAAH [3], 0 to 25%; at FAAH [4] it was 0 to 25%. Moreover, the inhibition at 5 mg/kg on MAGL [5] and at FAAH [6] was 0 to 25% in each case.
In the case of `O=C(O)c1ccn(C(=O)N2CCN(Cc3ccc(C(F)(F)F)cc3N3CC4COCC4C3)CC2)n1` (stereo not shown) [Example 106, 1-(4-(2-(tetrahydro-1H-furo[3,4-c]pyrrol-5(3H)-yl)-4-(trifluoromethyl)benzyl)piperazine-1-carbonyl)-1H-pyrazole-3-carboxylic acid], the inhibition at 1 µM on MAGL [1] is more than 75%; at MAGL [2], more than 75%; at FAAH [3], 0 to 25%; on FAAH [4], 0 to 25%. Besides, the inhibition at 5 mg/kg on MAGL [5] and on FAAH [6] was 0 to 25% throughout.
In the case of `O=C(O)c1ccn(C(=O)N2CCN(Cc3ccc(C(F)(F)F)c(N4C5CCC4COC5)c3)CC2)n1` [Example 40, 1-(4-(3-(3-oxa-8-azabicyclo[3.2.1]octan-8-yl)-4-(trifluoromethyl)benzyl)piperazine-1-carbonyl)-1H-pyrazole-3-carboxylic acid], the inhibition at 1 µM was more than 75% at MAGL [1], more than 75% on MAGL [2], 0 to 25% at FAAH [3] and 0 to 25% at FAAH [4]. The inhibition at 5 mg/kg at MAGL [5] and on FAAH [6] was 0 to 25% throughout.
For `CC1CCC(C)N1c1cc(C(F)(F)F)ccc1CN1CCN(C(=O)n2ccc(C(=O)O)n2)CC1` (stereo not shown) [Example 114, 1-(4-(2-(2,5-dimethylpyrrolidin-1-yl)-4-(trifluoromethyl)benzyl)piperazine-1-carbonyl)-1H-pyrazole-3-carboxylic acid], the inhibition at 1 µM was more than 75% at MAGL [1], more than 75% on MAGL [2], 0 to 25% on FAAH [3] and 0 to 25% at FAAH [4]. For the same compound, the inhibition at 5 mg/kg on MAGL [5] and on FAAH [6] was 0 to 25% throughout.
For the compound `O=C(O)c1ccn(C(=O)N2CCN(Cc3cccc(Oc4ccc(F)cc4)c3)CC2)n1` [Example 51, 1-(4-(3-(4-fluorophenoxy)benzyl)piperazine-1-carbonyl)-1H-pyrazole-3-carboxylic acid], the inhibition at 1 µM at MAGL [1] is more than 75%; at MAGL [2], more than 75%; at FAAH [3], 50 to 75%; on FAAH [4], 0 to 25%. This compound also had an IC50 on FAAH [3] of 100 to 1000 nM. Moreover, the inhibition at 5 mg/kg at MAGL [5] and at FAAH [6] was 0 to 25% throughout.
For the compound `Cc1cn(C(=O)N2CCC3(CCN(Cc4cc(Cl)ccc4C(F)(F)F)C3)CC2)nc1C(=O)O` [Example 130, 1-(2-(5-chloro-2-(trifluoromethyl)benzyl)-2,8-diazaspiro[4.5]decane-8-carbonyl)-4-methyl-1H-pyrazole-3-carboxylic acid], the inhibition at 1 µM on MAGL [1] is more than 75%; on MAGL [2], more than 75%; at FAAH [3], 50 to 75%; on FAAH [4] it was 50 to 75%. The compound also came in with an IC50 at FAAH [3] of 100 to 1000 nM. Besides, the inhibition at 5 mg/kg on MAGL [5] and on FAAH [6] was 0 to 25% each time.
